According to the supplement of paper PMC10307832:

How the values were obtained:
Assay in all cases: relative viability (nuclei count vs DMSO), 5 days (fraction); higher = more cells survive
[1] = compound: C=CCn1c(=O)c2cnc(Nc3ccc(N4CCN(C)CC4)cc3)nc2n1-c1cccc(C(C)(C)O)n1 [Adavosertib] + CC1(C)CCC(c2ccc(Cl)cc2)=C(CN2CCN(c3ccc(C(=O)NS(=O)(=O)c4ccc(N[C@H](CCN5CCOCC5)CSc5ccccc5)c(S(=O)(=O)C(F)(F)F)c4)cc3)CC2)C1 [Navitoclax] (partner 0.5 µM)
Outline: (§1)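 After 5 days of treatment, lung cancer cells in 1536-well plates were fixed and stained in a single step (final 0.05% Triton X-100, 1% formaldehyde, 1 ug/ml Hoechst) and their nuclei counted on 4× images. Treatment had been applied by pin tool the day after seeding as one drug alone or as a fixed anchor-drug dose with five library-drug doses (not always all listed) in √10 steps. Relative viability is the nuclei count of treated wells divided by that of vehicle wells, and values are medians of duplicate plates.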

[2] = compound: COc1nc(N)nc2c1ncn2[C@@H]1O[C@H](CO)[C@@H](O)[C@@H]1O [Nelarabine] + Cc1nc(NC(=O)N2CCC[C@H]2C(N)=O)sc1-c1ccnc(C(C)(C)C(F)(F)F)c1 [Alpelisib] (partner 2 µM)
Outline: as §1

[3] = compound: C=CCn1c(=O)c2cnc(Nc3ccc(N4CCN(C)CC4)cc3)nc2n1-c1cccc(C(C)(C)O)n1 [Adavosertib] + N=C(N)NC(=N)NCCc1ccccc1 [Phenformin] (partner 250 µM)
Outline: as §1

[4] = compound: COc1nc(N)nc2c1ncn2[C@@H]1O[C@H](CO)[C@@H](O)[C@@H]1O [Nelarabine] + CCNC(=O)c1noc(-c2cc(C(C)C)c(O)cc2O)c1-c1ccc(CN2CCOCC2)cc1 [Luminespib] (partner 0.01 µM)
Outline: as §1

Cell Line | relative viability ([1]; first compound 0.01 µM) | relative viability ([1]; first compound 0.03162 µM) | relative viability ([1]; first compound 0.1 µM) | relative viability ([1]; first compound 0.3162 µM) | relative viability ([2]; first compound 0.01 µM) | relative viability ([2]; first compound 0.03162 µM) | relative viability ([2]; first compound 0.1 µM) | relative viability ([2]; first compound 0.3162 µM) | relative viability ([2]; first compound 1 µM) | relative viability ([3]; first compound 0.01 µM) | relative viability ([3]; first compound 0.03162 µM) | relative viability ([3]; first compound 0.1 µM) | relative viability ([3]; first compound 0.3162 µM) | relative viability ([4]; first compound 0.01 µM) | relative viability ([4]; first compound 0.03162 µM) | relative viability ([4]; first compound 0.1 µM) | relative viability ([4]; first compound 0.3162 µM) | relative viability ([4]; first compound 1 µM)
NCI-H2085 | 1.28 | 1.05 | 1.06 | 1.11 | 1.06 | 0.992 | 0.94 | 1.01 | 1.02 | 0.668 | 0.757 | 0.784 | 0.761 | 0.498 | 0.48 | 0.427 | 0.518 | 0.434
NCI-H727 | 0.468 | 0.566 | 0.678 | 0.372 | 0.683 | 0.572 | 0.632 | 0.625 | 0.571 | 0.543 | 0.593 | 0.531 | 0.565 | 0.305 | 0.377 | 0.351 | 0.469 | 0.298
NCI-H596 | 0.897 | 1.01 | 1.06 | 0.742 | 0.532 | 0.504 | 0.525 | 0.577 | 0.504 | 0.662 | 0.909 | 0.754 | 1 | 1.04 | 0.996 | 1.08 | 1.12 | 0.988
PC-3 [JPC-3] | 0.842 | 0.782 | 0.797 | 0.716 | 1.14 | 0.993 | 1.06 | 1.05 | 0.986 | 0.458 | 0.46 | 0.498 | 0.488 | 0.651 | 0.429 | 0.697 | 0.703 | 0.601
COR-L23 | 1.14 | 1.03 | 1.14 | 0.293 | 0.969 | 0.768 | 0.743 | 0.869 | 0.747 | 0.433 | 0.465 | 0.442 | 0.267 | 0.973 | 0.796 | 0.576 | 0.906 | 0.869
RERF-LC-KJ | 1.01 | 0.751 | 0.828 | 0.952 | 0.944 | 0.889 | 0.909 | 0.861 | 1.09 | 0.363 | 0.381 | 0.4 | 0.439 | 1.41 | 1.31 | 1.34 | 1.27 | 1.31
NCI-H460 | 0.942 | 1.18 | 1.45 | 0.861 | 1.03 | 0.411 | 0.565 | 0.66 | 0.371 | 0.523 | 0.566 | 0.493 | 0.317 | 0.0293 | 0.0328 | 0.0352 | 0.0376 | 0.0317
NCI-H1915 | 0.831 | 0.766 | 0.804 | 0.786 | 1.2 | 1.05 | 1.11 | 1.07 | 1.06 | 0.364 | 0.367 | 0.388 | 0.365 | 1.31 | 0.87 | 0.912 | 0.841 | 0.988
COR-L 105 | 0.886 | 0.72 | 0.746 | 0.617 | 1.15 | 1.11 | 1.03 | 1.3 | 0.985 | 0.558 | 0.443 | 0.467 | 0.409 | 0.701 | 0.822 | 0.792 | 0.669 | 0.904
NCI-H441 | 0.645 | 0.741 | 0.64 | 0.401 | 0.974 | 0.675 | 0.704 | 0.921 | 0.986 | 0.876 | 0.78 | 1.09 | 0.765 | 0.306 | 0.372 | 0.286 | 0.294 | 0.268
HARA | 1.11 | 1.11 | 1.13 | 1.1 | 0.925 | 0.737 | 0.768 | 1.09 | 0.806 | 0.513 | 0.476 | 0.548 | 0.361 | 0.77 | 0.84 | 1 | 0.863 | 0.749
NCI-H1755 | 0.983 | 1 | 1.02 | 0.926 | 1.13 | 0.879 | 0.984 | 1.15 | 1.08 | 0.643 | 0.615 | 0.613 | 0.63 | 0.463 | 0.456 | 0.755 | 0.539 | 0.56
LXF-289 | 0.959 | 1.03 | 0.992 | 1.03 | 1.19 | 1.05 | 1.01 | 1.11 | 1.05 | 0.528 | 0.553 | 0.527 | 0.561 | 0.792 | 0.655 | 0.659 | 0.832 | 0.578
HCC-44 | 1.02 | 1.01 | 1.01 | 1.06 | 0.888 | 0.876 | 0.74 | 0.871 | 0.831 | 0.255 | 0.237 | 0.192 | 0.181 | 1.33 | 1.34 | 0.965 | 1.1 | 1.24
HOP-62 | 1.12 | 1.16 | 1.4 | 1.35 | 1.12 | 1.03 | 0.942 | 0.926 | 1.07 | 0.698 | 0.621 | 0.802 | 0.769 | 1.19 | 0.736 | 1 | 1.1 | 0.961
NCI-H2126 | 0.882 | 0.871 | 0.871 | 0.894 | 0.875 | 0.81 | 0.779 | 0.744 | 0.774 | 0.525 | 0.538 | 0.531 | 0.568 | 1.04 | 0.951 | 0.822 | 0.892 | 0.977
NCI-H1355 | 0.996 | 0.848 | 0.987 | 0.852 | 1.09 | 0.615 | 0.813 | 0.894 | 0.801 | 0.474 | 0.455 | 0.426 | 0.403 | 0.763 | 0.618 | 0.667 | 0.629 | 0.713
